Measurements as given in patent publication US10195185B2, “3-(1H-imidazo[4,5-C]pyridin-2-yl)-1H-pyrazolo[4,3-B]pyridines and therapeutic uses thereof” (Samumed, LLC, priority 2015, dated 2019).

Legend:
Format in all cases: cell-based
[1] = system: IL-6 in human monocyte cell line (THP-1 cells); experiment: IL-6 inhibition in LPS-stimulated THP-1 cells (HTRF); details: IL-6 in LPS-stimulated THP-1 cells, HTRF
Description: Human monocyte cell line (THP-1 cells; Catalog # TIB-202, ATCC, Manassas, Va.) were cultured in Roswell Park Memorial Institute (RPMI) 1640 Medium (Catalog #21870-100, Buffalo, N.Y.) with 1% L-glutamine, 1% HEPES, 1% Sodium Pyruvate, 2% Sodium Bicarbonate supplemented with 100 units/mL penicillin, 50 μg/mL streptomycin, 2-mercaptoethanol (0.05 mM) [basal medium] and 10% fetal bovine serum (Catalog #16140089, Life Technologies, Carlsbad, Calif.) at 37° C. and 5% CO2.
THP-1 cells were cultured in basal media with 1% FBS for 24 hours before the start of the assay. Each compound was dissolved in DMSO as a 10 mM stock and used to prepare compound source plates. Serial dilution (1:3, 10-point dose-response curves starting from 10 μM) and compound transfer was performed using the ECHO 550 (Labcyte, Sunnyvale, Calif.) into 384-well white low volume assay plates (Greiner Bio-One) with appropriate DMSO backfill for a final DMSO concentration of 0.1%. THP-1 cells were plated at 5000 cells/well in the 384-well plates and incubated at 37° C. for 2 h. 500 ng/mL of LPS was added after 2 hours and cells were incubated for another 22 hours at 37° C. Plates were spun in a centrifuge for 1 minute at […] and a mixture of anti-IL6 XL665, and anti-IL6 Cryptate diluted in reconstitution buffer (Cisbio Inc.) was added to each well. Following incubation for 3 hrs at room temperature, Homogeneous Time-Resolved Fluorescence (HTRF) was measured using the Envision (Perkin Elmer) at 665 nm and […]. The ratio of fluorescence at 665 nm to 620 nm was used as a readout for IL6 quantification. All samples were processed in duplicate. Readings were normalized to DMSO treated cells and normalized activities were utilized for EC50 calculations using the dose-response log (inhibitor) vs. response-variable slope (four parameters) nonlinear regression feature available in GraphPad Prism 5.0 (or Dotmatics). For EC50 of >10 μM, the percent inhibition at 10 μM is provided.

[2] = system: Wnt activity (Wnt-responsive human Sp5 promoter, TCF/LEF binding sites) in SW480 colon carcinoma cells; experiment: Wnt activity screening assay: Sp5-Luc luciferase reporter gene in SW480 cells; details: 10-point dose-response from 10 μM, incubated overnight
Excerpt: The screening assay for Wnt activity is described as follows. Reporter cell lines can be generated by stably transducing cancer cell lines (e.g., colon cancer) or primary cells (e.g., IEC-6 intestinal cells) with a lentiviral construct that includes a Wnt-responsive promoter driving expression of the firefly luciferase gene.
SW480 colon carcinoma cells were transduced with a lentiviral vector expressing luciferase with a human Sp5 promoter consisting of a sequence of eight TCF/LEF binding sites. SW480 cells stably expressing the Sp5-Luc reporter gene and a hygromycin resistance gene were selected by treatment with 150 μg/mL of hygromycin for 7 days. These stably transduced SW480 cells were expanded in cell culture and used for all further screening activities. Each compound was dissolved in DMSO as a 10 mM stock and used to prepare compound source plates. Serial dilution (1:3, 10-point dose-response curves starting from 10 μM) and compound transfer was performed using the ECHO 550 (Labcyte, Sunnyvale, Calif.) into 384-well white solid bottom assay plates (Greiner Bio-One) with appropriate DMSO backfill for a final DMSO concentration of 0.1%. For Sp5-Luc reporter gene assays, the cells were plated at 4,000 cells/well in 384-well plates with medium containing 1% fetal bovine serum and incubated overnight at 37° C. and 5% CO2. Following incubation, 20 μl of BrightGlo luminescence reagent (Promega) was added to each well of the 384-well assay plates. The plates were placed on an orbital shaker for 2 min and then luminescence was quantified using the Envision (Perkin Elmer) plate reader. Readings were normalized to DMSO only treated cells, and normalized activities were utilized for EC50 calculations using the dose-response log (inhibitor) vs. response-variable slope (four parameters) nonlinear regression feature available in GraphPad Prism 5.0 (or Dotmatics). For EC50 of >10 μM, the percent inhibition at 10 μM is provided.

[3] = system: Primary human fibroblasts derived from IPF patients (LL29 cells) treated with TGF-β1; experiment: Inhibition of the fibrotic process: αSMA staining in TGF-β1 treated fibroblasts; details: Fibroblast, 96 h, LL29 fibroblasts treated with TGF-β1, 4 days
Excerpt: Representative compounds were screened using primary human fibroblasts (derived from IPF patients) treated with TGF-β1 to determine their ability to inhibit the fibrotic process.
Primary human fibroblasts derived from IPF patients (LL29 cells) [^1Xiaoqiu Liu, et. al., “Fibrotic Lung Fibroblasts Show Blunted Inhibition by cAMP Due to Deficient cAMP Response Element-Binding Protein Phosphorylation”, Journal of Pharmacology and Experimental Therapeutics (2005), 315(2), 678-687; ^2Watts, K. L., et. al., “RhoA signaling modulates cyclin D1 expression in human lung fibroblasts; implications for idiopathic pulmonary fibrosis”, Respiratory Research (2006), 7(1), 88] were obtained from American Type Culture Collection (ATCC) and expanded in F12 medium supplemented with 15% Fetal Bovine Serum and Penicillin/Streptomycin.
Each compound was dissolved in DMSO as a 10 mM stock and used to prepare compound source plates. Serial dilution (1:2, 11-point dose-response curves from 10 μM to 1.87 nM) and compound transfer was performed using the ECHO 550 (Labcyte, Sunnyvale, Calif.) into 384-well clear bottom assay plates (Greiner Bio-One) with appropriate DMSO backfill for a final DMSO concentration of 0.1%. LL29 cells are plated at 1,500 cells/well in 80 μL/well F12 medium supplemented with 1% Fetal Bovine Serum. One hour after addition of the cells, TGF-β1 (Peprotech; 20 ng/mL) was added to the plates to induce fibrosis (ref. 1 and 2 above). Wells treated with TGF-β1 and containing DMSO were used as controls. Cells were incubated at 37° C. and 5% CO2 for 4 days. Following incubation for 4 days, SYTOX green nucleic acid stain (Life Technologies [Thermo Fisher Scientific]) was added to the wells at a final concentration of 1 μM and incubated at room temperature for 30 min. Cells were then fixed using 4% formaldehyde (Electron Microscopy Sciences), washed 3 times with PBS followed by blocking and permeabilization using 3% Bovine Serum Albumin (BSA; Sigma) and 0.3% Triton X-100 (Sigma) in PBS. Cells were then stained with antibody specific to α-smooth muscle actin (αSMA; Abcam) (ref. 1 and 2 above) in 3% Bovine Serum Albumin (BSA; Sigma) and 0.3% Triton X-100 (Sigma) in PBS, and incubated overnight at 4° C. Cells were then washed 3 times with PBS, followed by incubation with Alexa Flor-647 conjugated secondary antibody (Life Technologies [Thermo Fisher Scientific]) and DAPI at room temperature for 1 hour. Cells were then washed 3 times with PBS and plates were sealed for imaging. αSMA staining was imaged by excitation at 630 nm and emission at 665 nm and quantified using the Compartmental Analysis program on the CellInsight CX5 (Thermo Scientific). Dead or apoptotic cells were excluded from analysis based on positive SYTOX green staining. % of total cells positive for αSMA were counted in each well and normalized to the average of 11 wells treated with TGF-β1 on the same plate using Dotmatics' Studies Software. The normalized averages (fold change over untreated) of 3 replicate wells for each compound concentration were used to create dose-responses curves and EC50 values were calculated using non-linear regression curve fit in the Dotmatics' Studies Software. For EC50 of >10 μM, the percent inhibition at 10 μM is provided.

SW480 colon cancer cells = experiment: Cell viability assay (CellTiter-Blue), four days; details: Homo sapiens, 96 h, CellTiter-Blue cell viability
Description: Representative compounds were screened using the following assay procedure to assess the effect on cell viability as described below.
Each compound was dissolved in DMSO as a 10 mM stock and used to prepare compound source plates. Serial dilution (1:3, 8-point dose-response curves from 10 μM to 0.0045 μM) and compound transfer was performed using the ECHO 550 (Labcyte, Sunnyvale, Calif.) into 96-well clear bottom, black-walled plates (Corning-Costar).
Approximately 2×10^3 SW480 colon cancer cells were seeded into each well and allowed to incubate in the presence or absence of compound for four days at 37° C./5% CO2. Eight replicates of DMSO-treated cells served as controls and cells treated with compound were performed in duplicate.
After incubation, 20 μL of CellTiter-Blue (Promega) was added to each well allowed to incubate for approximately 3 hours. This reagent was a buffered solution which contains resazurin, metabolically active cells were able to reduce rezarurin (blue) into resorufin (pink) which was highly fluorescent. This measured fluorescence was used as a readout for cell viability.
After incubation, the plates were read at Ex 560 nm Em 590 nm (Cytation 3, BioTek). Dose-response curves were generated and EC50 concentration values were calculated using non-linear regression curve fit in the GraphPad Prism (San Diego, Calif.) or Dotmatics' Studies Software (Bishops Stortford, UK). For EC50 of >10 μM, the percent inhibition at 10 μM is provided.

SMILES | EC50 [1] [µM] | EC50 [2] [µM] | EC50 [3] [µM] | EC50 (SW480 colon cancer cells) [µM]
COc1cncc(-c2ccc3[nH]nc(-c4nc5c(N6CCCCC6)nccc5[nH]4)c3n2)c1 [Compound 612, 5-(5-Methoxypyridin-3-yl)-3-(4-(piperidin-1-yl)-1H-imidazo[4,5-c]pyridin-2-yl)-1H-pyrazolo[4,3-b]pyridine] | 3.81 | 3.23 | 2.92 | 3.99
CN1CCN(c2nccc3[nH]c(-c4n[nH]c5ccc(-c6cncc(OCc7ccccc7)c6)nc45)nc23)CC1 [Compound 646, 5-(5-(Benzyloxy)pyridin-3-yl)-3-(4-(4-methylpiperazin-1-yl)-1H-imidazo[4,5-c]pyridin-2-yl)-1H-pyrazolo[4,3-b]pyridine] | 1.49 | 3.85 | 3.98 | 3.13
CN(C)CCNc1cc(F)cc(-c2nccc3[nH]c(-c4n[nH]c5ccc(-c6cncc(CNCC7CCCC7)c6)nc45)nc23)c1 [Compound 473, N^1-(3-(2-(5-(5-(((Cyclopentylmethyl)amino)methyl)pyridin-3-yl)-1H-pyrazolo[4,3-b]pyridin-3-yl)-1H-imidazo[4,5-c]pyridin-4-yl)-5-fluorophenyl)-N^2,N^2-dimethylethane-1,2-diamine] | 4.66 | 4.41 | 5.06 | 8.37
